Source: US10385019B2, “Inhibitors of EGFR and methods of use thereof” (Dana-Farber Cancer Institute, Inc., priority 2015, dated 2019)

Target: EGFR T790M/L858R Ba/F3 cell line (Homo sapiens, UniProt P00533, T790M/L858R, cells depend on it)
Assay: Ba/F3 cell proliferation model
Assay type: cell-based, murine
Conditions: combined with cetuximab (% cetuximab, 1.0 μM drug concentration with 1.0 μg/mL cetuximab)
Procedure, shortened: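 Murine Ba/F3 cells made IL-3-independent by retroviral EGFR L858R/T790M, selected in puromycin (2 μg/ml) and kept in RPMI 1640 with 10% FBS. Cells were exposed to serially diluted compound for 72 h, with growth read by MTS assay in six wells per point and ≥3 repeats. Sigmoidal dose-response non-linear regression gave the values.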

Sequence of EGFR T790M/L858R Ba/F3 cell line (P00533 whole entry T790M/L858R): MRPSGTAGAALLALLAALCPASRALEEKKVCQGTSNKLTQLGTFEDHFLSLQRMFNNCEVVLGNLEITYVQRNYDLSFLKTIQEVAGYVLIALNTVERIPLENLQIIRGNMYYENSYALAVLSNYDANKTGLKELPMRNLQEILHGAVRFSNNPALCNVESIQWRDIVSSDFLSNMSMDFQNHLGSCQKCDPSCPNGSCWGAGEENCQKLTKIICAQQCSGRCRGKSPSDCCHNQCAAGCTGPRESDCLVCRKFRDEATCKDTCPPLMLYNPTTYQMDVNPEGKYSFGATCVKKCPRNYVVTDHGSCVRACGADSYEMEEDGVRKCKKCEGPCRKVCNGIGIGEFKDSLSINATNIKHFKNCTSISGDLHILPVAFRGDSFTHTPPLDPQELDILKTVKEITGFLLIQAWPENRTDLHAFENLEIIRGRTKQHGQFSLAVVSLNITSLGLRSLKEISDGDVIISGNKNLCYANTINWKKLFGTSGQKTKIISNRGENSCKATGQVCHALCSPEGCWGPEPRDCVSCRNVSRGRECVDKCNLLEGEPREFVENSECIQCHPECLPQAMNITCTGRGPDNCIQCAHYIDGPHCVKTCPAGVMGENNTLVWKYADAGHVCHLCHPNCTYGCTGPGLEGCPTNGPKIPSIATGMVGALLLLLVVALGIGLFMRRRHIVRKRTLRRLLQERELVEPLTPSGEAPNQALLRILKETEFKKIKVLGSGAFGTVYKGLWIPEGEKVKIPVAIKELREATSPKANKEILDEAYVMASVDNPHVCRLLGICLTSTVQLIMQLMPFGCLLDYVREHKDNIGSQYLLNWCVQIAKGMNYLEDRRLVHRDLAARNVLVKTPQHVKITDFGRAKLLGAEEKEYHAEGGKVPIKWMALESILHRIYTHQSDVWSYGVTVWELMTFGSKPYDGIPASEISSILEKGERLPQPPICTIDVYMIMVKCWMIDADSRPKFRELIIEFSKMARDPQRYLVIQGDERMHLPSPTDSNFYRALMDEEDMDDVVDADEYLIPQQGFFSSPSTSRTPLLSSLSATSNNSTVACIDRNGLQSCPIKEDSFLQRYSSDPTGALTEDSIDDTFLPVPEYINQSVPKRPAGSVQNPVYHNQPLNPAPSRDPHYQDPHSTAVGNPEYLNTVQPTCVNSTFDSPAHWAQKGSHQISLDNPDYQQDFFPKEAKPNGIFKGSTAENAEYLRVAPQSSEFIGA

Row | Compound | Activity (% inhibition)
1 | O=C(Nc1nccs1)[C@H](Cc1ccccc1)N1Cc2ccccc2C1=O [Compound I-45, (S)-2-(1-oxoisoindolin-2-yl)-3-phenyl-N-(thiazol-2-yl) propanamide] | A (a % inhibition of about 75%)
2 | O=C(Nc1ncco1)[C@@H](c1ccccc1)N1Cc2ccccc2C1=O [Compound I-19, (R)-N-(oxazol-2-yl)-2-(1-oxoisoindolin-2-yl)-2-phenylacetamide] | A (a % inhibition of about 75%)
3 | O=C(Nc1nccs1)C(c1ccccn1)N1Cc2ccc(-c3ccc4[nH]ccc4c3)cc2C1=O (stereo not shown) [Compound I-123, 2-(6-(1H-indol-5-yl)-1-oxoisoindolin-2-yl)-2-(pyridin-2-yl)-N-(thiazol-2-yl)acetamide] | D (a % inhibition of between about 0% to about 25%)
4 | Nc1cccc(-c2ccc3c(c2)C(=O)N([C@@H](C(=O)Nc2nccs2)c2ccccc2)C3)c1 [Compound I-73, (R)-2-(6-(3-aminophenyl)-1-oxoisoindolin-2-yl)-2-phenyl-N-(thiazol-2-yl)acetamide] | C (a % inhibition of between about 25% to about 50%)
5 | CN(C)C1CCN(C(=O)c2csc(NC(=O)[C@@H](c3ccccc3)N3Cc4ccccc4C3=O)n2)CC1 [Compound I-23, (R)-N-(4-(4-(dimethylamino)piperidine-1-carbonyl)thiazol-2-yl)-2-(1-oxoisoindolin-2-yl)-2-phenylacetamide] | A (a % inhibition of about 75%)
6 | O=C(Nc1ncc(Br)s1)[C@@H](c1ccccc1)N1Cc2ccccc2C1=O [Compound I-40, (R)-N-(5-bromothiazol-2-yl)-2-(1-oxoisoindolin-2-yl)-2-phenylacetamide] | A (a % inhibition of about 75%)
7 | O=C(Nc1nccs1)[C@@H](c1ccccc1)N1Cc2ccc(-c3cccc4cccnc34)cc2C1=O [Compound I-71, (R)-2-(1-oxo-6-(quinolin-8-yl)isoindolin-2-yl)-2-phenyl-N-(thiazol-2-yl)acetamide] | C (a % inhibition of between about 25% to about 50%)
8 | O=C(Nc1nncs1)[C@@H](c1ccccc1)N1Cc2ccc(-c3ccc4[nH]ccc4c3)cc2C1=O [Compound I-127, (R)-2-(6-(1H-indol-5-yl)-1-oxoisoindolin-2-yl)-2-phenyl-N-(1,3,4-thiadiazol-2-yl)acetamide] | A (a % inhibition of about 75%)
9 | O=C(NCC(O)CO)c1cc(Br)ccc1N[C@@H](C(=O)Nc1nccs1)c1ccccc1 (stereo partly drawn) [Compound I-111, 5-bromo-N-(2,3-dihydroxypropyl)-2-(((R)-2-oxo-1-phenyl-2-(thiazol-2-ylamino)ethyl)amino)benzamide] | A (a % inhibition of about 75%)
10 | N#Cc1ccc(-c2ccc3c(c2)C(=O)N([C@H](C(=O)Nc2nccs2)c2ccccc2)C3)cc1F [Compound I-114, (S)-2-(6-(4-cyano-3-fluorophenyl)-1-oxoisoindolin-2-yl)-2-phenyl-N-(thiazol-2-yl)acetamide] | B (a % inhibition of between about 50% to about 75%)
11 | O=C(Nc1nccs1)[C@@H](c1ccccc1)N1Cc2ccc(C3=CCCCC3)cc2C1=O [Compound I-86, (R)-2-(6-(cyclohex-1-en-1-yl)-1-oxoisoindolin-2-yl)-2-phenyl-N-(thiazol-2-yl)acetamide] | B (a % inhibition of between about 50% to about 75%)
12 | O=C(Nc1ncco1)[C@@H](c1ccccc1)N1Cc2ccc(-c3ccc4[nH]ccc4c3)cc2C1=O [Compound I-129, (R)-2-(6-(1H-indol-5-yl)-1-oxoisoindolin-2-yl)-N-(oxazol-2-yl)-2-phenylacetamide] | B (a % inhibition of between about 50% to about 75%)
13 | O=C(Nc1nccs1)[C@@H](c1ccccc1)N1Cc2cc(Nc3ccc(N4CCOCC4)cc3)ccc2C1=O [Compound I-94, (R)-2-(5-((4-morpholinophenyl)amino)-1-oxoisoindolin-2-yl)-2-phenyl-(thiazol-2-yl)acetamide] | C (a % inhibition of between about 25% to about 50%)
14 | O=C(Nc1nccs1)[C@@H](c1ccccc1)N1Cc2ccc(-c3cn[nH]c3)cc2C1=O [Compound I-64, (R)-2-(1-oxo-6-(1H-pyrazol-4-yl)isoindolin-2-yl)-2-phenyl-N-(thiazol-2-yl)acetamide] | B (a % inhibition of between about 50% to about 75%)
15 | O=C(Nc1cnoc1)[C@@H](c1ccccc1)N1Cc2ccc(-c3ccc4[nH]ccc4c3)cc2C1=O [Compound I-130, (R)-2-(6-(1H-indol-5-yl)-1-oxoisoindolin-2-yl)-N-(isoxazol-4-yl)-2-phenylacetamide] | C (a % inhibition of between about 25% to about 50%)
16 | O=C(Nc1ccccn1)[C@@H](c1ccccc1)N1Cc2ccccc2C1=O [Compound I-31, (R)-2-(1-oxoisoindolin-2-yl)-2-phenyl-N-(pyridin-2-yl) acetamide] | A (a % inhibition of about 75%)

Row | Compound | Activity (% inhibition)
17 | O=C(Nc1nccs1)[C@@H](c1cc(F)ccc1O)N1Cc2ccc(-c3ccc(N4CCNCC4)cc3)cc2C1=O [Compound I-126, (R)-2-(5-fluoro-2-hydroxyphenyl)-2-(1-oxo-6-(4-(piperazin-1-yl)phenyl)isoindolin-2-yl)-N-(thiazol-2-yl)acetamide] | D (a % inhibition of between about 0% to about 25%)
18 | O=C(Nc1ncccc1F)[C@@H](c1ccccc1)N1Cc2ccccc2C1=O [Compound I-56, (R)-N-(3-fluoropyridin-2-yl)-2-(1-oxoisoindolin-2-yl)-2-phenylacetamide] | B (a % inhibition of between about 50% to about 75%)
19 | COC(=O)c1ccc(-c2ccc3c(c2)C(=O)N([C@@H](C(=O)Nc2nccs2)c2ccccc2)C3)cc1 [Compound I-72, methyl (R)-4-(3-oxo-2-(2-oxo-1-phenyl-2-(thiazol-2-ylamino)ethyl)isoindolin-5-yl)benzoate] | B (a % inhibition of between about 50% to about 75%)
20 | O=C(Nc1nccs1)[C@@H](c1ccccc1)N1Cc2cc(-c3ccc4[nH]ccc4c3)ccc2C1=O [Compound I-104, (R)-2-(5-(1H-indol-5-yl)-1-oxoisoindolin-2-yl)-2-phenyl-N-(thiazol-2-yl)acetamide] | C (a % inhibition of between about 25% to about 50%)
21 | O=C(Nc1ncccc1Cl)[C@@H](c1ccccc1)N1Cc2ccccc2C1=O [Compound I-57, (R)-N-(3-chloropyridin-2-yl)-2-(1-oxoisoindolin-2-yl)-2-phenylacetamide] | A (a % inhibition of about 75%)
22 | O=C(Nc1nccs1)[C@H](c1cccc([N+](=O)[O-])c1)N1Cc2ccccc2C1=O [Compound I-12, (S)-2-(3-nitrophenyl)-2-(1-oxoisoindolin-2-yl)-N-(thiazol-2-yl)acetamide] | A (a % inhibition of about 75%)
23 | CN1CCN(c2ccc(-c3ccc4c(c3)CN([C@@H](C(=O)Nc3nccs3)c3ccccc3)C4=O)cc2)CC1 [Compound I-102, (R)-2-(5-(4-(4-methylpiperazin-1-yl)phenyl)-1-oxoisoindolin-2-yl)-2-phenyl-N-(thiazol-2-yl)acetamide] | B (a % inhibition of between about 50% to about 75%)
24 | O=C(Nc1ccccc1F)[C@@H](c1ccccc1)N1Cc2ccccc2C1=O [Compound I-55, (R)-N-(2-fluorophenyl)-2-(1-oxoisoindolin-2-yl)-2-phenylacetamide] | B (a % inhibition of between about 50% to about 75%)
25 | O=C(Nc1nc(C(F)(F)F)cs1)[C@@H](c1ccccc1)N1Cc2ccc(-c3ccc4[nH]ccc4c3)cc2C1=O [Compound I-132, (R)-2-(6-(1H-indol-5-yl)-1-oxoisoindolin-2-yl)-2-phenyl-N-(4-(trifluoromethyl)thiazol-2-yl)acetamide] | A (a % inhibition of about 75%)
26 | O=C(Nc1nccs1)[C@@H](c1ccccc1)N1Cc2cc(-c3ccccc3)ccc2C1=O [Compound I-105, (R)-2-(1-oxo-5-phenylisoindolin-2-yl)-2-phenyl-N-(thiazol-2-yl)acetamide] | B (a % inhibition of between about 50% to about 75%)
27 | O=C(Nc1nc(Br)cs1)[C@@H](c1ccccc1)N1Cc2ccccc2C1=O [Compound I-36, (R)-N-(4-bromothiazol-2-yl)-2-(1-oxoisoindolin-2-yl)-2-phenylacetamide] | A (a % inhibition of about 75%)
28 | O=C(NCCN1CCOCC1)c1ccc(-c2ccc3c(c2)C(=O)N([C@@H](C(=O)Nc2nccs2)c2ccccc2)C3)cc1 [Compound I-83, (R)-N-(2-morpholinoethyl)-4-(3-oxo-2-(2-oxo-1-phenyl-2-(thiazol-2-ylamino)ethyl)isoindolin-5-yl)benzamide] | D (a % inhibition of between about 0% to about 25%)
29 | O=C(Nc1ncc[nH]1)[C@@H](c1ccccc1)N1Cc2ccc(-c3ccc4[nH]ccc4c3)cc2C1=O [Compound I-133, (R)-2-(6-(1H-indol-5-yl)-1-oxoisoindolin-2-yl)-N-(1H-imidazol-2-yl)-2-phenylacetamide] | D (a % inhibition of between about 0% to about 25%)
30 | O=C(Nc1nc(C(=O)N2CCOCC2)cs1)[C@@H](c1ccccc1)N1Cc2ccccc2C1=O [Compound I-22, (R)-N-(4-(morpholine-4-carbonyl)thiazol-2-yl)-2-(1-oxoisoindolin-2-yl)-2-phenylacetamide] | A (a % inhibition of about 75%)
31 | O=C(Nc1cc(Br)ccn1)[C@@H](c1ccccc1)N1Cc2ccccc2C1=O [Compound I-28, (R)-N-(4-bromopyridin-2-yl)-2-(1-oxoisoindolin-2-yl)-2-phenylacetamide] | A (a % inhibition of about 75%)
32 | C[C@H](C(=O)Nc1nccs1)N1Cc2ccc(-c3ccc4[nH]ccc4c3)cc2C1=O [Compound I-116, (R)-2-(6-(1H-indol-5-yl)-1-oxoisoindolin-2-yl)-N-(thiazol-2-yl)propanamide] | A (a % inhibition of about 75%)

Same assay, conditions: compound alone; read-out: L858R/T790M IC50

Row | Compound | GI50
33 | O=C(Nc1nccs1)[C@@H](c1cc(F)ccc1O)N1Cc2ccc(-c3ccc(N4CCNCC4)cc3)cc2C1=O [Compound I-126, (R)-2-(5-fluoro-2-hydroxyphenyl)-2-(1-oxo-6-(4-(piperazin-1-yl)phenyl)isoindolin-2-yl)-N-(thiazol-2-yl)acetamide] | 0.5 to 1 µM

Same assay, conditions: read-out: L858R/T790M Cetuximab IC50; in combination with Cetuximab

Row | Compound | GI50
34 | O=C(Nc1nccs1)[C@@H](c1cc(F)ccc1O)N1Cc2ccc(-c3ccc(N4CCNCC4)cc3)cc2C1=O [Compound I-126, (R)-2-(5-fluoro-2-hydroxyphenyl)-2-(1-oxo-6-(4-(piperazin-1-yl)phenyl)isoindolin-2-yl)-N-(thiazol-2-yl)acetamide] | < 0.5 µM
